Measured values: US11679108B2, “Aromatic heterocyclic compound, and pharmaceutical composition and use thereof” (GUANGZHOU HENOVCOM BIOSCIENCE CO., LTD., priority 2018, dated 2023)

target: T1, ATX in human plasma (Homo sapiens, UniProt Q13822); experiment: Analysis in vitro: detection of LPA in human plasma for screening activity (LPA 18:2 by LC/MS/MS); format: biochemical; details: incubated 2 hours at 37° C., LPA 18:2 detected by LC/MS/MS
T1 construct: blank plasma was derived from at least 6 individual people; from tissue; host or cells: human plasma (pooled from at least 6 individuals)
Description: Analysis In Vitro: Detection of LPA in Human Plasma for Screening Activity
Principle: LPC in plasma being used as a substrate, the produced LPA 18:2 (LPA 17:0 as an internal standard) is detected by LC/MS/MS quantitative analysis. At different concentrations of the compounds to be tested, the percentage of residual activity is obtained by the ratio of the production of LPA18:2 to that in the absence of the compounds to be tested, thereby calculating IC50 values.
Experiment procedures: blank plasma was derived from at least 6 individual people. The compounds to be tested were diluted from stock solution in 3-fold dilution gradient, to produce 8 concentrations of working solution (with zero) in series. 10 μL of the melting blank plasma samples were taken and iced methanol solution containing internal standard (LPA 17:0) was added to it, so that the mixture directedly performed protein precipitation, which served as a system control sample. 2 μL of the working solution in different concentration was taken and 198 μL of blank human plasma was added, which was incubated with a concentration of 0 to 10 μM. The samples were placed at an incubater containing 5% CO2 at 37° C., and incubated for 2 hours. When the incubation was completed, 10 μL of plasma sample was taken and appropriate volume of iced methanol solution containing internal standard (LPA 17:0) was added into it, so that the mixture directedly performed protein precipitation. The precipitation was centrifuged to take supernatant. LPA 18:2 was detected by LC/MS/MS and IC50 values were analyzed and calculated by software, seeing Table 2.

SMILES | IC50 [nM]
CCc1nc2sc(N3CCC(N(C)CC(=O)O)C3)nn2c1N(C)c1nc(-c2ccc(F)cc2)c(C#N)s1 (stereo not shown) [Example 49, 2-{[1-(5-((5-cyano-4-(4-fluorophenyl)thiazol-2-yl)(methyl)amino)-6-ethylimidazo[2,1-b][1,3,4]thiadiazol-2-yl)pyrrolidin-3-yl](methyl)amino}acetic acid] | 500 to 1000
CCc1nc2sc(N3CC4(CN(C(N)=O)C4)C3)nn2c1N(C)c1nc(-c2ccc(F)cc2)c(C#N)s1 [Example 9, 6-{5-[(5-cyano-4-(4-fluorophenyl)thiazol-2-yl)(methyl)amino]-6-ethylimidazo[2,1-b][1,3,4]thiadiazol-2-yl}-2,6-diazaspiro[3.3]heptane-2-carboxamide] | 500 to 1000
CCc1nc2sc(N3CC4CCN(CC(=O)N5CC(O)C5)C4C3)nn2c1N(C)c1nc(-c2ccc(F)cc2)c(C#N)s1 (stereo not shown) [Example 62, 2-{[6-ethyl-2-(1-(2-(3-hydroxyazetidin-1-yl)-2-oxoethyl)hexahydropyrrolo[3,4-b]pyrrol-5(1H)-yl)imidazo[2,1-b][1,3,4]thiadiazol-5-yl](methyl)amino}-4-(4-fluorophenyl)thiazole-5-carbonitrile] | 100 to 500
CCc1nc2sc(N3CCC4(CN(CC(=O)N5CC(C#N)C5)C4)C3)nn2c1N(C)c1nc(-c2ccc(F)cc2)c(C#N)s1 [Example 55, 2-{[6-ethyl-2-(2-(2-(3-cyanoazetidin-1-yl)-2-oxoethyl)-2,6-diazaspiro[3.4]octane-6-yl)imidazo[2,1-b][1,3,4]thiadiazol-5-yl](methyl)amino}-4-(4-fluorophenyl)thiazole-5-carbonitrile] | 100 to 500
CCc1nc2sc(N3CC4CCC(C3)N4CC(=O)N3CC(O)C3)nn2c1N(C)c1nc(-c2ccc(F)cc2)c(C#N)s1 [Example 70, 2-{[6-ethyl-2-(8-(2-(3-hydroxyazetidin-1-yl)-2-oxoethyl)-3,8-diazabicyclo[3.2.1]octan-3-yl)imidazo[2,1-b][1,3,4]thiadiazol-5-yl](methyl)amino}-4-(4-fluorophenyl)thiazole-5-carbonitrile] | 100 to 500
CCc1nc2sc(N3CC4CN(CC(=O)N5CC(C#N)C5)CC4C3)nn2c1N(C)c1nc(-c2ccc(F)cc2)c(C#N)s1 (stereo not shown) [Example 57, 2-{[6-ethyl-2-(5-(2-(3-cyanoazetidin-1-yl)-2-oxoethyl)hexahydropyrrolo[3,4-c]pyrrol-2(1H)-yl)imidazo[2,1-b][1,3,4]thiadiazol-5-yl](methyl)amino}-4-(4-fluorophenyl)thiazole-5-carbonitrile] | 100 to 500
CCc1nc2sc(N3CCC(N(C)CC(=O)NCC(=O)OC)C3)nn2c1N(C)c1nc(-c2ccc(F)cc2)c(C#N)s1 (stereo not shown) [Example 50] | 100 to 500
CCc1nc2sc(N3CC4CC3CO4)nn2c1N(C)c1nc(-c2ccc(F)cc2)c(C#N)s1 (stereo not shown) [Example 60, 2-{[2-(2-oxa-5-azabicyclo[2.2.1]heptan-5-yl)-6-ethylimidazo[2,1-b][1,3,4]thiadiazol-5-yl](methyl)amino}-4-(4-fluorophenyl)thiazole-5-carbonitrile] | ≥ 1000
CCc1nc2sc(N3C[C@@H](C)N(CC(=O)N4CC(O)C4)C[C@H]3C)nn2c1N(C)c1nc(-c2ccc(F)cc2)c(C#N)s1 [Example 75, 2-{[6-ethyl-2-((2R,5R)-4-(2-(3-hydroxyazetidin-1-yl)-2-oxoethyl)-2,5-dimethylpiperazin-1-yl)imidazo[2,1-b][1,3,4]thiadiazol-5-yl](methyl)amino}-4-(4-fluorophenyl)thiazole-5-carbonitrile] | 100 to 500
CCc1nc2sc(N3C[C@@H](C)N(CC(=O)N4CC(O)C4)[C@@H](C)C3)nn2c1N(C)c1nc(-c2ccc(F)cc2)c(C#N)s1 [Example 72, cis-2-{[6-ethyl-2-(4-(2-(3-hydroxyazetidin-1-yl)-2-oxoethyl)-3,5-dimethylpiperazin-1-yl)imidazo[2,1-b][1,3,4]thiadiazol-5-yl](methyl)amino}-4-(4-fluorophenyl)thiazole-5-carbonitrile] | 100 to 500
CCc1nc2sc(N3CCN(CC(=O)N4CC(O)C4)[C@H](C)C3)nn2c1N(C)c1nc(-c2ccc(F)cc2)c(C#N)s1 [Example 69, (R)-2-{[6-ethyl-2-(4-(2-(3-hydroxyazetidin-1-yl)-2-oxoethyl)-3-methylpiperazin-1-yl)imidazo[2,1-b][1,3,4]thiadiazol-5-yl](methyl)amino}-4-(4-fluorophenyl)thiazole-5-carbonitrile] | 100 to 500

Continued, values first:

IC50 [nM] | SMILES
0.01 to 100 | CCc1nc2sc(N3CCN(CC(=O)N4CC(O)C4)C(C)C3C)nn2c1N(C)c1nc(-c2ccc(F)cc2)c(C#N)s1 (stereo not shown) [Example 77, 2-{[6-ethyl-2-(4-(2-(3-hydroxyazetidin-1-yl)-2-oxoethyl)-2,3-dimethylpiperazin-1-yl)imidazo[2,1-b][1,3,4]thiadiazol-5-yl](methyl)amino}-4-(4-fluorophenyl)thiazole-5-carbonitrile]
0.01 to 100 | CCc1nc2sc(N3CCN(CC(=O)N4CC(O)C4)C[C@@H]3C)nn2c1N(C)c1nc(-c2ccc(F)cc2)c(C#N)s1 [Example 67, (S)-2-{[6-ethyl-2-(4-(2-(3-hydroxyazetidin-1-yl)-2-oxoethyl)-2-methylpiperazin-1-yl)imidazo[2,1-b][1,3,4]thiadiazol-5-yl](methyl)amino}-4-(4-fluorophenyl)thiazole-5-carbonitrile]
100 to 500 | CCc1nc2sc(N3CC4(CCN(CC(=O)N5CC(O)C5)C4)C3)nn2c1N(C)c1nc(-c2ccc(F)cc2)c(C#N)s1 [Example 52, 2-{[6-ethyl-2-(6-(2-(3-hydroxyazetidin-1-yl)-2-oxoethyl)-2,6-diazaspiro[3.4]octan-2-yl)imidazo[2,1-b][1,3,4]thiadiazol-5-yl](methyl)amino}-4-(4-fluorophenyl)thiazole-5-carbonitrile]
0.01 to 100 | CCc1nc2sc(N3CC(N(C)CC(=O)N4CC(O)C4)C3)nn2c1N(C)c1nc(-c2ccc(F)cc2)c(C#N)s1 [Example 63]
0.01 to 100 | CCc1nc2sc(N3CC4(CCN(CC(=O)N5CC(C#N)C5)C4)C3)nn2c1N(C)c1nc(-c2ccc(F)cc2)c(C#N)s1 [Example 53, 2-{[6-ethyl-2-(6-(2-(3-cyanoazetidin-1-yl)-2-oxoethyl)-2,6-diazaspiro[3.4]octane-2-yl)imidazo[2,1-b][1,3,4]thiadiazol-5-yl](methyl)amino}-4-(4-fluorophenyl)thiazole-5-carbonitrile]
0.01 to 100 | CCc1nc2sc(N3CC[C@@H](N(C)C(C)C(=O)N4CC(O)C4)C3)nn2c1N(C)c1nc(-c2ccc(F)cc2)c(C#N)s1 (stereo partly drawn) [Example 78, 2-{[6-ethyl-2-((3R)-3-((1-(3-hydroxyazetidin-1-yl)-1-oxopropan-2-yl)(methyl)amino)pyrrolidin-1-yl)imidazo[2,1-b][1,3,4]thiadiazol-5-yl](methyl)amino}-4-(4-fluorophenyl)thiazol-5-carbonitrile]
0.01 to 100 | CCc1nc2sc(N3C[C@@H]4C[C@H]3CN4CC(=O)N3CC(O)C3)nn2c1N(C)c1nc(-c2ccc(F)cc2)c(C#N)s1 [Example 58, 2-{[6-ethyl-2-((1S,4S)-5-(2-(3-hydroxyazetidin-1-yl)-2-oxoethyl)-2,5-diazabicyclo[2.2.1]heptan-2-yl)imidazo[2,1-b][1,3,4]thiadiazol-5-yl](methyl)amino}-4-(4-fluorophenyl)thiazole-5-carbonitrile]
0.01 to 100 | CCc1nc2sc(N3C[C@H](C)N(CC(=O)N4CC(O)C4)C[C@H]3C)nn2c1N(C)c1nc(-c2ccc(F)cc2)c(C#N)s1 (relative stereo) [Example 76, trans-2-{[6-ethyl-2-(4-(2-(3-hydroxyazetidin-1-yl)-2-oxoethyl)-2,5-dimethylpiperazin-1-yl)imidazo[2,1-b][1,3,4]thiadiazol-5-yl](methyl)amino}-4-(4-fluorophenyl)thiazole-5-carbonitrile]
0.01 to 100 | CCc1nc2sc(N3CC4CN(CC(=O)N5CC(O)C5)CC4C3)nn2c1N(C)c1nc(-c2ccc(F)cc2)c(C#N)s1 (stereo not shown) [Example 56, 2-{[6-ethyl-2-(5-(2-(3-hydroxyazetidin-1-yl)-2-oxoethyl)hexahydropyrrolo[3,4-c]pyrrol-2(1H)-yl)imidazo[2,1-b][1,3,4]thiadiazol-5-yl](methyl)amino}-4-(4-fluorophenyl)thiazole-5-carbonitrile]
0.01 to 100 | CCc1nc2sc(N3CC[C@@H](NCC(=O)N4CC(O)C4)C3)nn2c1N(C)c1nc(-c2ccc(F)cc2)c(C#N)s1 [Example 80, (R)-2-{[6-ethyl-2-(3-((2-(3-hydroxyazetidin-1-yl)-2-oxoethyl)amino)pyrrolidin-1-yl)imidazo[2,1-b][1,3,4]thiadiazol-5-yl](methyl)amino}-4-(4-fluorophenyl)thiazol-5-carbonitrile]
0.01 to 100 | CCc1nc2sc(N3CCN(CC(=O)N4CC(O)C4)C(C)(C)C3)nn2c1N(C)c1nc(-c2ccc(F)cc2)c(C#N)s1 [Example 65, 2-{[6-ethyl-2-(4-(2-(3-hydroxyazetidin-1-yl)-2-oxoethyl)-3,3-dimethylpiperazin-1-yl)imidazo[2,1-b][1,3,4]thiadiazol-5-yl](methyl)amino}-4-(4-fluorophenyl)thiazole-5-carbonitrile]
